The record followed here is US20220143042A1, “FUSED GLYCOSIDASE INHIBITORS” (Asceneuron SA, priority 2019, published 2022).

Structures are written as SMILES.

The test concerns the target T1, His-Tagged hOGA (Homo sapiens, UniProt O60502).
T1 sequence (O60502 1-916): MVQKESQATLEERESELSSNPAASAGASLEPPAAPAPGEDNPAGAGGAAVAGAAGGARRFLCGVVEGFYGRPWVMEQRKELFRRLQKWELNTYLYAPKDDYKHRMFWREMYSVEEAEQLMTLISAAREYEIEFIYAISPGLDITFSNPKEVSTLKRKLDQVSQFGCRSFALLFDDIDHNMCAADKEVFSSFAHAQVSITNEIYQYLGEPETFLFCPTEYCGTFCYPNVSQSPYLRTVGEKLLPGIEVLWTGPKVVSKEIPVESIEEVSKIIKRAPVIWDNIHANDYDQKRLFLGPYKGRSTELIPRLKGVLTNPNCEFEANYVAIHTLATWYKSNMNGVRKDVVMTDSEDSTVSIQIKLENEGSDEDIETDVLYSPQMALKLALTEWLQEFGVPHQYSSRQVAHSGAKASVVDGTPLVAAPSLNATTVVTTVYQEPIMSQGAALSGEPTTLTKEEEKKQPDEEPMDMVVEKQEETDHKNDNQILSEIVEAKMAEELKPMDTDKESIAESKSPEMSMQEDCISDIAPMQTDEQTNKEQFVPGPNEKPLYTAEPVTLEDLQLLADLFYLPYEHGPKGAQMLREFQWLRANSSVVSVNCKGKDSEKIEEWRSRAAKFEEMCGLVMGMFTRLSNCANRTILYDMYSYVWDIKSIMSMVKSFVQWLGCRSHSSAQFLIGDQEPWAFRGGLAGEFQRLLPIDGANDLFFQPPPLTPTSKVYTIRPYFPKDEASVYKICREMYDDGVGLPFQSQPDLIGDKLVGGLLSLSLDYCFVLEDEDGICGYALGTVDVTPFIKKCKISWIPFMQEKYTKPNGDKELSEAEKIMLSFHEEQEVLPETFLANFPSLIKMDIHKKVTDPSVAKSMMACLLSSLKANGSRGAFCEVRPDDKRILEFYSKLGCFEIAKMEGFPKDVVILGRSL
Put plainly: Human O-GlcNAcase enzyme inhibition assay. The following applies: OGA enzyme inhibition assay; FL-GlcNAc substrate, 60 min at room temperature, pH 6.5. In kind it is biochemical. The protocol: EXAMPLE B01: HUMAN O-GLCNACASE ENZYME INHIBITION ASSAY
5 μl of the appropriate concentration of a solution of inhibitor in Mcllvaine's Buffer (pH 6.5) in 2% DMSO (for a dose response curve calculation) is added into each well of a 384-well plate (Greiner, 781900). Then, 20 nM of His-Tagged hOGA and 10 μM of FL-GlcNAc (Fluorescein mono-beta-D-(2-deoxy-2-N-acetyl) glucopyranoside; Marker Gene Technologies Inc, M1485) were added to the 384-well plate for a final volume of 20 μl. After incubation for 60 min at room temperature, the reaction was terminated by the addition of 10 μL of stop buffer (200 mM glycine, pH 10.75). The level of fluorescence (λexc 485 nm; (λemm 520 nm) was read on a PHERAstar machine. The amount of fluorescence measured was plotted against the concentration of inhibitor to produce a sigmoidal dose response curve to calculate an IC50. All individual data was corrected by subtraction of the background (Thiamet 3 uM=100% inhibition) whilst 0.5% DMSO was considered as the control value (no inhibition).
Broadly, the IC50 is the point on the concentration scale where inhibition reaches its midpoint. The low end stands for higher potency, the high end for lower potency. `CC(=O)Nc1nc2c(s1)CCN(C(C)c1ccc3scnc3c1)CC2` (single isomer, unassigned) [Example 162] yielded an IC50 of less than 0.05 µM.
Compound `CC(=O)Nc1ncc(CN2CCc3nc(N)sc3CC2)s1` (racemic) [Example 151, N-(5-((2-AMINO-4,5,7,8-TETRAHYDRO-6H-THIAZOLO[4,5-D]AZEPIN-6-YL)METHYL)THIAZOL-2-YL)ACETAMIDE] gave an IC50 of 0.05 to 0.2 µM.
In turn, `CC(=O)Nc1ncc(CN2CCc3nncn3CC2)s1` (racemic) [Example 154] gave an IC50 of less than 0.05 µM.
In the case of `CC(=O)Nc1nc2c(s1)CCN(C(C)c1ccc3scnc3c1)CC2` (single isomer, unassigned) [Example 163] it was 0.2 to 1 µM.
Compound `CC(=O)Nc1ncc(CN2CCc3cn(C)nc3CC2)s1` (racemic) [Example 23, N-(5-((2-METHYL-4,5,7,8-TETRAHYDROPYRAZOLO[3,4-D]AZEPIN-6(2H)-YL)METHYL)THIAZOL-2-YL)ACETAMIDE] registered an IC50 of less than 0.05 µM.
On to `CC(=O)Nc1ncc(CN2CCc3nc(C)sc3CC2)s1` (racemic) [Example 26, N-(5-((2-METHYL-4,5,7,8-TETRAHYDRO-6H-THIAZOLO[4,5-D]AZEPIN-6-YL)METHYL)THIAZOL-2-YL)ACETAMIDE], for which the IC50 was less than 0.05 µM.
For `CC(c1ccc2scnc2c1)N1CCCc2nn(C)cc2C1` (racemic) [Example 165, 5-(1-(2-METHYL-2,6,7,8-TETRAHYDROPYRAZOLO[4,3-C]AZEPIN-5(4H)-YL)ETHYL)BENZO[D]THIAZOLE], the IC50 lay in the range of 0.2 to 1 µM.
`CC(c1ccc2scnc2c1)N1CCc2nc[nH]c2CC1` (racemic) [Example 161] displayed an IC50 of 0.05 to 0.2 µM.
The figure for `CC(c1ccc2scnc2c1)N1CCc2cn(C)nc2CC1` (racemic) [Example 1, 5-(1-(2-METHYL-4,5,7,8-TETRAHYDROPYRAZOLO[3,4-D]AZEPIN-6(2H)-YL)ETHYL)BENZO[D]THIAZOLE] is less than 0.05 µM; for `CC(=O)Nc1nc2c(s1)CN(C(C)c1ccc3scnc3c1)CCC2` (racemic) [Example 152] it is 0.2 to 1 µM.
`CC(=O)Nc1nc2c(s1)CCN(C(C)c1ccc3scnc3c1)CC2` (racemic) [Example 16] yielded an IC50 of less than 0.05 µM.
On to `CC(c1ccc2scnc2c1)N1CCc2c([Si](C)(C)C)nn(C)c2CC1` (racemic) [Example 48, 5-(1-(1-METHYL-3-(TRIMETHYLSILYL)-4,5,7,8-TETRAHYDROPYRAZOLO[3,4-D]AZEPIN-6(1H)-YL)ETHYL)BENZO[D]THIAZOLE], for which the IC50 was less than 0.05 µM.
`CC(c1ccc2scnc2c1)N1CCc2c(-c3ccccc3)nn(C)c2CC1` (racemic) [Example 47, 5-(1-(1-METHYL-3-PHENYL-4,5,7,8-TETRAHYDROPYRAZOLO[3,4-D]AZEPIN-6(1H)-YL)ETHYL)BENZO[D]THIAZOLE]: the IC50 was less than 0.05 µM.
Regarding `Cc1nc2c(s1)CCN(C(C)c1ccc3c(c1)OCC3)CC2` (racemic) [Example 20, 6-(1-(2,3-DIHYDROBENZOFURAN-6-YL)ETHYL)-2-METHYL-5,6,7,8-TETRAHYDRO-4H-THIAZOLO[4,5-D]AZEPINE], the IC50 is less than 0.05 µM.
For `CC(c1ccc2scnc2c1)N1CCc2nn(C)c(-c3ccccc3)c2CC1` (racemic) [Example 46, 5-(1-(2-METHYL-3-PHENYL-4,5,7,8-TETRAHYDROPYRAZOLO[3,4-D]AZEPIN-6(2H)-YL)ETHYL)BENZO[D]THIAZOLE], the IC50 is less than 0.05 µM.
`Cc1nc2c(s1)CCN(C(C)c1ccc3scnc3c1)CC2` (racemic) [Example 14, 6-(1-(BENZO[D]THIAZOL-5-YL)ETHYL)-2-METHYL-5,6,7,8-TETRAHYDRO-4H-THIAZOLO[4,5-D]AZEPINE] had an IC50 of less than 0.05 µM.
